Laboratory results taken from ChEMBL document CHEMBL6103654, “Design, Biological Characterization, and Discovery of Capromorelin Derivatives as Oral Growth Hormone Secretagogue Receptor Type 1a Agonist for the Treatment of Growth Hormone Deficiency” (J Med Chem, 2025).
pEC50, pIC50: −log10 of the molar value. Calls of active or inactive are those of the source. No cut-off for these calls is given here.

What was measured:
[1] = Metabolic stability in dog liver microsome assessed as half life at 1 uM measured upto 60 mins in presence of NADPH by LC-MS/MS analysis; format: ADME, Canis lupus familiaris; conditions: liver microsomes
CHO [2] = experiment: Agonist activity at monkey GHSR expressed in CHO cells at maximum concentration incubated for 60 min by FLIPR assay relative to control; format: cell-based; conditions: Macaca mulatta, filed as agonist
[3] = Agonist activity at dog GHSR expressed in CHO cells incubated for 60 min by FLIPR assay; format: cell-based; conditions: 1 h
CHO [4] = experiment: Agonist activity at dog GHSR expressed in CHO cells at maximum concentration incubated for 60 min by FLIPR assay relative to control; format: cell-based; conditions: Canis lupus familiaris, filed as agonist
[5] = Volume of distribution in male Sprague-Dawley rat at 1 mg/kg, iv administered as single dose measured after 4 hrs; format: ADME, organism-based; conditions: in vivo
[6] = Tmax in male Sprague-Dawley rat at 2 mg/kg, po administered as single dose measured after 4 hrs; format: ADME, organism-based; conditions: in vivo
Rattus norvegicus [7] = experiment: Induction of growth hormone level in Juvenile Sprague-Dawley rat blood at 0.1 mg/kg, po administered as single dose measured after 1 hr by ELISA method (reference value: 45.2+/-12.5 ng/mL); format: functional
Rattus norvegicus [8] = experiment: Induction of growth hormone level in Juvenile Sprague-Dawley rat blood by measuring AUC(0 to 40 mins) at 0.1 mg/kg, po administered as single dose by ELISA method (reference value: 20.2+/-4.3 ng/mL); format: functional, organism-based; conditions: time 4.0 hrs
Rattus norvegicus [9] = experiment: Induction of growth hormone level in Juvenile Sprague-Dawley rat blood at 0.2 mg/kg, po administered as single dose measured after 10 mins by ELISA method (reference value: 23.2+/-5.6 ng/mL); format: functional
Rattus norvegicus [10] = experiment: Induction of growth hormone level in Juvenile Sprague-Dawley rat blood by measuring AUC(0 to 40 mins) at 0.2 mg/kg, po administered as single dose by ELISA method (reference value: 20.2+/-4.3 ng/mL); format: functional, organism-based
Rattus norvegicus [11] = experiment: Induction of growth hormone level in Juvenile Sprague-Dawley rat blood at 0.5 mg/kg, po administered as single dose measured after 1 hr by ELISA method (reference value: 45.2+/-12.5 ng/mL); format: functional
Rattus norvegicus [12] = experiment: Induction of growth hormone level in Juvenile Sprague-Dawley rat blood at 0.5 mg/kg, po administered as single dose measured after 2 hrs by ELISA method (reference value: 26.5+/-7.3 ng/mL); format: functional
Rattus norvegicus [13] = experiment: Induction of growth hormone level in Juvenile Sprague-Dawley rat blood at 0.5 mg/kg, po administered as single dose measured after 4 hrs by ELISA method (reference value: 32.5+/-4.5 ng/mL); format: functional
Rattus norvegicus [14] = experiment: Induction of growth hormone level in adult Sprague-Dawley rat blood at 0.1 mg/kg, po administered as single dose measured immediately by ELISA method (reference value: 12.6+/-4.4 ng/mL); format: functional
Rattus norvegicus [15] = experiment: Induction of growth hormone level in adult Sprague-Dawley rat blood at 0.1 mg/kg, po administered as single dose measured after 10 mins by ELISA method (reference value: 13.7+/-7.2 ng/mL); format: functional
Rattus norvegicus [16] = experiment: Induction of growth hormone level in adult Sprague-Dawley rat blood at 0.2 mg/kg, po administered as single dose measured after 20 mins by ELISA method (reference value: 4.9+/-1.1 ng/mL); format: functional
Rattus norvegicus [17] = experiment: Induction of growth hormone level in adult Sprague-Dawley rat blood at 0.2 mg/kg, po administered as single dose measured after 40 mins by ELISA method (reference value: 14.4+/-6.9 ng/mL); format: functional
Rattus norvegicus [18] = experiment: Induction of growth hormone level in adult Sprague-Dawley rat blood at 0.5 mg/kg, po administered as single dose measured after 40 mins by ELISA method (reference value: 14.4+/-6.9 ng/mL); format: functional
Rattus norvegicus [19] = experiment: Induction of growth hormone level in 4 week-old female Sprague-Dawley rat assessed as increase in body weight at 2.5 mg/kg, po measured after 10 days; format: functional, organism-based; conditions: time 10.0 day
Rattus norvegicus [20] = organism: Rattus norvegicus; experiment: Induction of growth hormone level in 4 week-old Sprague-Dawley rat assessed as increase in body length measured after 10 days; format: functional, organism-based; conditions: time 10.0 day
[21] = Half life in male monkey at 0.5 mg/kg, iv administered as single dose measured after 4 hrs; format: ADME, organism-based, Macaca mulatta; conditions: rhesus monkey, in vivo
[22] = Tmax in male monkey at 2 mg/kg, po administered as single dose measured after 4 hrs; format: ADME, organism-based, Macaca mulatta; conditions: rhesus monkey, in vivo
[23] = Half life in male dog at 0.5 mg/kg, iv administered as single dose measured after 4 hrs; format: ADME, organism-based, Canis lupus familiaris; conditions: in vivo
[24] = Cmax in male dog at 2 mg/kg, po administered as single dose measured after 4 hrs; format: ADME, organism-based, Canis lupus familiaris; conditions: in vivo
[25] = Oral bioavailability in male dog at 2 mg/kg administered as single dose measured after 4 hrs; format: ADME, organism-based, Canis lupus familiaris; conditions: in vivo
[26] = Cmax in male mouse at 2 mg/kg, po administered as single dose measured after 4 hrs; format: ADME, organism-based; conditions: in vivo
[27] = Oral bioavailability in male mouse at 2 mg/kg administered as single dose measured after 4 hrs; format: ADME, organism-based; conditions: in vivo
[28] = Metabolic stability in monkey liver microsome assessed as hepatic clearance at 1 uM measured upto 60 mins in presence of NADPH by LC-MS/MS analysis; format: ADME, Macaca mulatta; conditions: rhesus monkey, liver microsomes, read-out: CLH
[29] = Metabolic stability in mouse liver microsome assessed as half life at 1 uM measured upto 60 mins in presence of NADPH by LC-MS/MS analysis; format: ADME; conditions: liver microsomes
[30] = Metabolic stability in mouse liver microsome assessed as intrinsic clearance at 1 uM measured upto 60 mins in presence of NADPH by LC-MS/MS analysis; format: ADME; conditions: liver microsomes, read-out: CLH
[31] = Plasma protein binding in rat assessed as unbound fraction measured after 6 hrs by dialysis method; format: ADME, cell-free
Cytochrome P450 3A4 = Cytochrome P450 3A4 (Homo sapiens, UniProt P08684); experiment: Inhibition of CYP3A4 in human liver microsome using midazolam as substrate incubated for 5 min in presence of NADPH by UPLC-MS/MS analysis; format: ADME, microsomes
Sequence of Cytochrome P450 3A4 (P08684 whole entry): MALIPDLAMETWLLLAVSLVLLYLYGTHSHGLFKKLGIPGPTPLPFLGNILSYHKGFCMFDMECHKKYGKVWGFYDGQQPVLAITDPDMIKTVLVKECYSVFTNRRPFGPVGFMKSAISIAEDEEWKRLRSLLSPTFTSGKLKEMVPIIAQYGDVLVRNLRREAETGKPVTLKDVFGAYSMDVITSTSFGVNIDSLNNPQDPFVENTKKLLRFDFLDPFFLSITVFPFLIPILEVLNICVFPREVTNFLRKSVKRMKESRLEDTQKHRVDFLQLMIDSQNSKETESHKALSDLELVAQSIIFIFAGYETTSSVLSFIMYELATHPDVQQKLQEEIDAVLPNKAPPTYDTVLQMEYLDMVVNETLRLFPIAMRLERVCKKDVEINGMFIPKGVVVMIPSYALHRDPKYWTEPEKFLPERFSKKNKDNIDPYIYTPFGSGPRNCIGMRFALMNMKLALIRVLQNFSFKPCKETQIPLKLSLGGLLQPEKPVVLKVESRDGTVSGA

Cytochrome P450 2C9 = Cytochrome P450 2C9 (Homo sapiens, UniProt P11712); experiment: Inhibition of CYP2C9 in human liver microsome incubated for 5 min in presence of NADPH by UPLC-MS/MS analysis; format: ADME, microsomes
Sequence of Cytochrome P450 2C9 (P11712 whole entry): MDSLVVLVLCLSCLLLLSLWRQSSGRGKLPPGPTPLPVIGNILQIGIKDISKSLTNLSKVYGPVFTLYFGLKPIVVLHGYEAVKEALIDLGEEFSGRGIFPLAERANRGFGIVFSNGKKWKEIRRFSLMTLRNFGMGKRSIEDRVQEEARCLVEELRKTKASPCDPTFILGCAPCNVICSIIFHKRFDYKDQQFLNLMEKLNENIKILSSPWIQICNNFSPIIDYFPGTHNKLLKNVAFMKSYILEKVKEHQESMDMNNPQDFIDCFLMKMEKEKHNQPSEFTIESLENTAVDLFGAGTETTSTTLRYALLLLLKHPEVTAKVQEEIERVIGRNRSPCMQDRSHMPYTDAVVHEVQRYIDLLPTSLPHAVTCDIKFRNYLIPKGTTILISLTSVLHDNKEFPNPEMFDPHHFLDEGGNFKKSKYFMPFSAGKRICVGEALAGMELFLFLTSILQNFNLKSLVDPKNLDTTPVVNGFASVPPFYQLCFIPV

[32] = biological target: Voltage-gated inwardly rectifying potassium channel KCNH2 (Homo sapiens, UniProt Q12809); experiment: Inhibition of human ERG expressed in HEK293 cells by patch clamp assay; format: toxicity, cell-based
Sequence of Voltage-gated inwardly rectifying potassium channel KCNH2 (Q12809 whole entry): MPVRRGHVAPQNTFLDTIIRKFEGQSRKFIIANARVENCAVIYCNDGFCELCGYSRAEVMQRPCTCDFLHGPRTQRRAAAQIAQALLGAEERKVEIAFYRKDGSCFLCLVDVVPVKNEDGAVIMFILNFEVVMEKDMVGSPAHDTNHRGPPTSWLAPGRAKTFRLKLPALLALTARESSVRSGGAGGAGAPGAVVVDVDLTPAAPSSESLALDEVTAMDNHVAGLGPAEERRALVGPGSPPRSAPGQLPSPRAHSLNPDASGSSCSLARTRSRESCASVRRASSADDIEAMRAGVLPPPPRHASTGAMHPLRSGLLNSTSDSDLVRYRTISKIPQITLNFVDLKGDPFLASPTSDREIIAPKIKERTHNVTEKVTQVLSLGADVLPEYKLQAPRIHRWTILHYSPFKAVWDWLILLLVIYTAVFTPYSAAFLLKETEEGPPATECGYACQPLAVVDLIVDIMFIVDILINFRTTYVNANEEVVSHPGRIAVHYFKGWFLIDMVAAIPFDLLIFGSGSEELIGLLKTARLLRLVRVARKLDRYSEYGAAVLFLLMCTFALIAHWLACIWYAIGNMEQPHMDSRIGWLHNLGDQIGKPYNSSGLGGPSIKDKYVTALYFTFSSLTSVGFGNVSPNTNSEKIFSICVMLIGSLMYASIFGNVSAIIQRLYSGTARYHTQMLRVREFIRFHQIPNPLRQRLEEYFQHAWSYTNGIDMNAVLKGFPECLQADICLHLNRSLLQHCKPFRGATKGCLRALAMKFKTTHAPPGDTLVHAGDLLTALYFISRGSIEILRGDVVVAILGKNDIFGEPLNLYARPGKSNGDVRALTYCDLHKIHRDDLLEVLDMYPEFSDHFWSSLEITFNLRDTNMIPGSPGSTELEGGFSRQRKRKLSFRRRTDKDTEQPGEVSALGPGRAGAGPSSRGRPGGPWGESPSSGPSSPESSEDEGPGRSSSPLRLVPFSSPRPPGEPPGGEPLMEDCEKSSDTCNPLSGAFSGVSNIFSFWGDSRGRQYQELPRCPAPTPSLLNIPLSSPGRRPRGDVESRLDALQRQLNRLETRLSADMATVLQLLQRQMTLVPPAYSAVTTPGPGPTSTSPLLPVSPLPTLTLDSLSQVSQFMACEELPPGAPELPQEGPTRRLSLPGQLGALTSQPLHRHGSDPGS

[33] = Genotoxicity in Salmonella typhimurium TA98 by Ames test; format: toxicity; conditions: salmonella enterica subsp. enterica serovar typhimurium
[34] = Genotoxicity in Salmonella typhimurium TA100 by Ames test; format: toxicity; conditions: salmonella enterica subsp. enterica serovar typhimurium
[35] = Genotoxicity in Salmonella typhimurium TA1537 by Ames test; format: toxicity; conditions: salmonella enterica subsp. enterica serovar typhimurium
[36] = Toxicity in Sprague-Dawley rat assessed as effect on lymphocyte containing white pulp around central arteriole at 10 to 100 mg/kg, po administered once daily for 14 days by H&E staining based analysis; format: organism-based; conditions: in vivo, 336 h, dose 10-100 mg/kg, time 14 day

## CC(C)(N)C(=O)N[C@H](COCc1ccccc1)C(=O)N1CCC2=NN(C3CC3)C(=O)[C@]2(Cc2ccccc2)C1
[1]
  half-life at 1 µM: 10.3 min
CHO [2]
  Activity: 106%
[3]
  pEC50: 10.37
CHO [4]
  Activity: 124%
[5]
  Vd: 2.65 L/kg
[6]
  Tmax: 15 min
Rattus norvegicus [7]
  Activity: 37.8 ng/mL
Rattus norvegicus [8]
  AUC: 109 ng·h/mL
Rattus norvegicus [9]
  Activity: 200.8 ng/mL
Rattus norvegicus [10]
  AUC: 102 ng·h/mL
Rattus norvegicus [11]
  Activity: 27.2 ng/mL
Rattus norvegicus [12]
  Activity: 34.4 ng/mL
Rattus norvegicus [13]
  Activity: 56.7 ng/mL
Rattus norvegicus [14]
  Activity: 21.2 ng/mL
Rattus norvegicus [15]
  Activity: 216.1 ng/mL
Rattus norvegicus [16]
  Activity: 73.2 ng/mL
Rattus norvegicus [17]
  Activity: 26 ng/mL
Rattus norvegicus [18]
  Activity: 27.8 ng/mL
Rattus norvegicus [19]
  Activity: Active
Rattus norvegicus [20]
  Activity: Dose-dependent-effect
[21]
  half-life: 46.8 min
[22]
  Tmax: 79.8 min
[23]
  half-life: 56.4 min
[24]
  Cmax: 200 ng/mL
[25]
  bioavailability: 43.6%
[26]
  Cmax: 125 ng/mL
[27]
  bioavailability: 33.9%
[28]
  CLint scaled at 1 µM: 541 mL/min/kg
[29]
  half-life at 1 µM: 4.2 min
[30]
  microsomal CLint at 1 µM: 330 µL/min/mg
[31]
  fraction unbound at 6 h: 0.673
Cytochrome P450 3A4
  pIC50: < 4.52
Cytochrome P450 2C9
  pIC50: < 4.52
[32]
  pIC50: < 4.52
[33]
  Activity: Non-toxic
[34]
  Activity: Non-toxic
[35]
  Activity: Non-toxic
[36]
  Activity: Non-toxic
